Data reported in ChEMBL document CHEMBL1201862, “PubChem BioAssay data set” (2004).
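Where inhibition never reached the appropriate level, the endpoint shown equals the highest concentration tested. Otherwise, values were interpolated linearly from a five-concentration, 48-hour dose response in 96-well plates. Abbreviation: GI50, concentration required for 50% inhibition of growth.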 Active and inactive are the calls of the source. No stated cut-off is given here; in the data, active = GI50 up to about 1.1 µM and inactive = higher.

Tests used:
Test in all cases: NCI anticancer screen, dose series, 48 h
IGROV-1 = test system: IGROV-1
KM12 = test system: KM12
SF-268 = test system: SF-268
SF-295 = test system: SF-295
T47D = test system: T47D
HCC 2998 = test system: HCC 2998
SF-539 = test system: SF-539
SNB-75 = test system: SNB-75
SNB-19 = test system: SNB-19
OVCAR-4 = test system: OVCAR-4
NCI-H522 = test system: NCI-H522
TK-10 = test system: TK-10
MDA-MB-435 = test system: MDA-MB-435
OVCAR-3 = test system: OVCAR-3
SK-OV-3 = test system: SK-OV-3
SW-620 = test system: SW-620
A549 = test system: A549
ACHN = test system: ACHN
SK-MEL-28 = test system: SK-MEL-28
RPMI-8226 = test system: RPMI-8226

| Structure (SMILES) | GI50 (IGROV-1) | GI50 (KM12) | GI50 (SF-268) | GI50 (SF-295) | GI50 (T47D) | GI50 (HCC 2998) | GI50 (SF-539) | GI50 (SNB-75) | GI50 (SNB-19) | GI50 (OVCAR-4) | GI50 (NCI-H522) | GI50 (TK-10) | GI50 (MDA-MB-435) | GI50 (OVCAR-3) | GI50 (SK-OV-3) | GI50 (SW-620) | GI50 (A549) | GI50 (ACHN) | GI50 (SK-MEL-28) | GI50 (RPMI-8226) |
| --- | --- | --- | --- | --- | --- | --- | --- | --- | --- | --- | --- | --- | --- | --- | --- | --- | --- | --- | --- | --- |
| CCC/N=C/c1cc(Cc2ccc(O)c(/C=N/CCC)c2)ccc1O | 4.09 µM (inactive) | 3.95 µM (inactive) | 3.8 µM (inactive) | 12.9 µM (inactive) | 1.45 µM (inactive) | 14.1 µM (inactive) | 2.77 µM (inactive) | 2.86 µM (inactive) | 2.7 µM (inactive) | 5.47 µM (inactive) | 20.6 µM (inactive) | 11.1 µM (inactive) | 3.47 µM (inactive) | 2.91 µM (inactive) | 18.5 µM (inactive) | 3.55 µM (inactive) | 17 µM (inactive) | 20.7 µM (inactive) |  |  |
| CC(C)(C)O/C=C1/C(=O)OC2C[C@@H](O[Si](C)(C)C(C)(C)C)CC12 (stereo partly specified) | 72.6 µM (inactive) | 65.2 µM (inactive) | 80.9 µM (inactive) | 61.5 µM (inactive) | 23.3 µM (inactive) | > 100 µM (inactive) |  | 16.8 µM (inactive) | 94.2 µM (inactive) | 74 µM (inactive) | 27.6 µM (inactive) | > 100 µM (inactive) | 77.6 µM (inactive) | 48.4 µM (inactive) | > 100 µM (inactive) | 54.3 µM (inactive) | 58.9 µM (inactive) | 72.6 µM (inactive) | > 100 µM (inactive) |  |
| CC(=O)c1cn(-c2ccc(Cl)cc2)c(=O)c2c(N)n[nH]c12 | > 100 µM (inactive) | > 100 µM (inactive) | > 100 µM (inactive) | > 100 µM (inactive) | > 100 µM (inactive) | > 100 µM (inactive) |  | > 100 µM (inactive) | > 100 µM (inactive) | > 100 µM (inactive) |  | > 100 µM (inactive) | > 100 µM (inactive) |  | > 100 µM (inactive) | > 100 µM (inactive) |  | 25.6 µM (inactive) | > 100 µM (inactive) | > 100 µM (inactive) |
| Cc1[nH]c(=O)c2oc3cc4ccccc4cc3c2c1C(=O)O | > 10 µM (inactive) | > 10 µM (inactive) | > 10 µM (inactive) | 8.99 µM (inactive) | > 10 µM (inactive) | > 10 µM (inactive) | > 10 µM (inactive) | > 10 µM (inactive) | > 10 µM (inactive) | > 10 µM (inactive) | > 10 µM (inactive) | > 10 µM (inactive) | > 10 µM (inactive) | > 10 µM (inactive) | > 10 µM (inactive) | > 10 µM (inactive) | > 10 µM (inactive) | > 10 µM (inactive) |  |  |
| CS(=O)(=O)N(CC(=O)O)Cc1ccccc1 | > 100 µM (inactive) | > 100 µM (inactive) | > 100 µM (inactive) | > 100 µM (inactive) | > 100 µM (inactive) |  | > 100 µM (inactive) | > 100 µM (inactive) | > 100 µM (inactive) | > 100 µM (inactive) | > 100 µM (inactive) | > 100 µM (inactive) | > 100 µM (inactive) | > 100 µM (inactive) | > 100 µM (inactive) | > 100 µM (inactive) | > 100 µM (inactive) | > 100 µM (inactive) | > 100 µM (inactive) | > 100 µM (inactive) |
| O=C(C1OC1c1ccc(F)cc1)C12CC3CC(CC(C3)C1)C2 (stereo unspecified) | 19 µM (inactive) | 15.7 µM (inactive) | 22.4 µM (inactive) | 22.6 µM (inactive) | 25.1 µM (inactive) | 20.1 µM (inactive) | 21.2 µM (inactive) | 31 µM (inactive) | 33.4 µM (inactive) | 13.8 µM (inactive) | 17.4 µM (inactive) | 35.2 µM (inactive) | 11.9 µM (inactive) | 14.9 µM (inactive) | 31.1 µM (inactive) | 17.2 µM (inactive) | 21 µM (inactive) | 30 µM (inactive) | 24.4 µM (inactive) |  |
| O=CC12c3ccccc3C(c3ccccc31)C1C(=O)NC(=O)C12 (stereo unspecified) | 37.2 µM (inactive) | > 100 µM (inactive) | > 100 µM (inactive) | > 100 µM (inactive) | 75.3 µM (inactive) | > 100 µM (inactive) | > 100 µM (inactive) | 39 µM (inactive) | > 100 µM (inactive) | > 100 µM (inactive) | 53 µM (inactive) | > 100 µM (inactive) | > 100 µM (inactive) | > 100 µM (inactive) | > 100 µM (inactive) | > 100 µM (inactive) | > 100 µM (inactive) | > 100 µM (inactive) | > 100 µM (inactive) |  |
| CC1OC(O)C(O)C(O)C1O (stereo unspecified) | > 100 µM (inactive) | > 100 µM (inactive) | > 100 µM (inactive) | > 100 µM (inactive) | > 100 µM (inactive) |  | > 100 µM (inactive) | > 100 µM (inactive) | > 100 µM (inactive) | > 100 µM (inactive) | > 100 µM (inactive) | > 100 µM (inactive) | > 100 µM (inactive) | > 100 µM (inactive) | > 100 µM (inactive) | > 100 µM (inactive) | > 100 µM (inactive) | > 100 µM (inactive) | > 100 µM (inactive) | > 100 µM (inactive) |
| O=C(O)COc1cccc2ccccc(=O)c12 | > 100 µM (inactive) | > 100 µM (inactive) | > 100 µM (inactive) | > 100 µM (inactive) | > 100 µM (inactive) | > 100 µM (inactive) | > 100 µM (inactive) | 0.0126 µM (active) | > 100 µM (inactive) | > 100 µM (inactive) | > 100 µM (inactive) | > 100 µM (inactive) | > 100 µM (inactive) | > 100 µM (inactive) | > 100 µM (inactive) | > 100 µM (inactive) | > 100 µM (inactive) | > 100 µM (inactive) | > 100 µM (inactive) |  |
| O=CC(O)C(O)C(O)C(O)C(=O)NCCCCCCCCCCCCNC(=O)C(O)C(O)C(O)C(O)C=O (stereo unspecified) | > 100 µM (inactive) | > 100 µM (inactive) | > 100 µM (inactive) | > 100 µM (inactive) | > 100 µM (inactive) | > 100 µM (inactive) | > 100 µM (inactive) |  | > 100 µM (inactive) | > 100 µM (inactive) | > 100 µM (inactive) | > 100 µM (inactive) | > 100 µM (inactive) | > 100 µM (inactive) | > 100 µM (inactive) | > 100 µM (inactive) | > 100 µM (inactive) | > 100 µM (inactive) | > 100 µM (inactive) |  |
| CCOP(=O)(OCC)/C(C#N)=C/c1cccn1CC(C)C | > 100 µM (inactive) | 89.9 µM (inactive) | > 100 µM (inactive) | > 100 µM (inactive) | 36.6 µM (inactive) | > 100 µM (inactive) | > 100 µM (inactive) | > 100 µM (inactive) | > 100 µM (inactive) |  | 81.8 µM (inactive) | > 100 µM (inactive) | > 100 µM (inactive) | > 100 µM (inactive) | > 100 µM (inactive) | > 100 µM (inactive) | > 100 µM (inactive) | > 100 µM (inactive) | > 100 µM (inactive) |  |
| CC(=O)Nc1ccc(-c2cc(C(=O)O)c3cc4ccccc4cc3n2)cc1 | > 100 µM (inactive) | > 100 µM (inactive) | > 100 µM (inactive) | > 100 µM (inactive) | > 100 µM (inactive) |  | > 100 µM (inactive) | > 100 µM (inactive) | > 100 µM (inactive) | > 100 µM (inactive) | > 100 µM (inactive) | > 100 µM (inactive) | > 100 µM (inactive) | > 100 µM (inactive) | > 100 µM (inactive) | > 100 µM (inactive) | > 100 µM (inactive) | > 100 µM (inactive) | > 100 µM (inactive) | > 100 µM (inactive) |
| C[n+]1c(-c2ccc(/C=N\N3CCN(/N=C/c4ccc(-c5cn6ccsc6[n+]5C)cc4)CC3)cc2)cn2ccsc21 | 30.7 µM (inactive) | 25.8 µM (inactive) | 34.4 µM (inactive) | 28.6 µM (inactive) | 12.7 µM (inactive) |  | 30.3 µM (inactive) | 26.9 µM (inactive) | 38.4 µM (inactive) | 28.4 µM (inactive) | 18.1 µM (inactive) | 35.7 µM (inactive) | 26.7 µM (inactive) | 59.8 µM (inactive) | 8.04 µM (inactive) | 32.1 µM (inactive) | 44.1 µM (inactive) | 65.5 µM (inactive) |  | 22.7 µM (inactive) |
| COC(=O)c1ccccc1Nc1nc(-c2cccs2)nc2cc(OC)c(OC)cc12 | 14.7 µM (inactive) | 71.8 µM (inactive) | 46.3 µM (inactive) | 29.2 µM (inactive) | 37 µM (inactive) |  | 27.4 µM (inactive) | 75.3 µM (inactive) | 33.1 µM (inactive) | 40.6 µM (inactive) | 59.7 µM (inactive) | 28.3 µM (inactive) | > 100 µM (inactive) | 40.2 µM (inactive) | 55.7 µM (inactive) | > 100 µM (inactive) | 54 µM (inactive) | 47.8 µM (inactive) | > 100 µM (inactive) | 49.8 µM (inactive) |
| O=C(OC[C@H]1C[C@H]2C(=O)CCC[C@H]2O1)c1ccccc1 | > 100 µM (inactive) | > 100 µM (inactive) | > 100 µM (inactive) | > 100 µM (inactive) | > 100 µM (inactive) |  | > 100 µM (inactive) | > 100 µM (inactive) | > 100 µM (inactive) | > 100 µM (inactive) | > 100 µM (inactive) | > 100 µM (inactive) | > 100 µM (inactive) | > 100 µM (inactive) | > 100 µM (inactive) | > 100 µM (inactive) | > 100 µM (inactive) | > 100 µM (inactive) | > 100 µM (inactive) | > 100 µM (inactive) |
